US20070248996A1, “Modulators of beta-amyloid peptide aggregation comprising D-amino acids” (Paraecis Pharmaceuticals, Inc., priority 1995, published 2007)
Where two headings read alike, the source gives them in different places. Square brackets hold non-standard residues; d marks the D form. Peptide text beside a SMILES is read from it. * marks the point of attachment. Isoquinolin(3-yl)carbonyl = O=C(c1cc2ccccc2cn1)*; Quinoline4carbonyl = O=C(c1ccnc2ccccc12)*; Acetyl(3-pyridyl) = O=C(Cc1cccnc1)*; Benzoyl(4-OH) = O=C(c1ccc(O)cc1)*; d3Pal = N[C@H](Cc1cccnc1)C(=O)O; X5 = O=C(c1nccc2ccccc12)*

Biological target: Aβ1-40 (Homo sapiens, UniProt P05067)
Sequence (P05067 672-711): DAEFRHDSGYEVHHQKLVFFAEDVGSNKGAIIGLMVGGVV
Assay type: biochemical
Design: ΔLag: unit not given here
Conditions: for ΔLag 0.5 μM / ΔLag 5.0 μM / ΔLag […]: Table VI; for ΔLag 5.0 μM: 5.0 μM test compound; for ΔLag […]: […] test compound; for ΔLag: Table XI; for ΔLag 3 μM: 3 μM test compound; for ΔLag 4 μM: 4 μM test compound
From the text: The nucleation assay is employed to determine the ability of test compounds to alter (e.g. inhibit) the early events in formation of β-AP fibers from monomeric β-AP. Characteristic of a nucleated polymerization mechanism, a lag time is observed prior to nucleation, after which the peptide rapidly forms fibers as reflected in a linear rise in turbidity. The time delay before polymerization of β-AP monomer can be quantified as well as the extent of formation of insoluble fiber by light scattering (turbidity). Polymerization reaches equilibrium when the maximum turbidity reaches a plateau The turbidity of a solution of natural β-AP in the absence or presence of various concentrations of a β-amyloid modulator compound is determined by measuring the apparent absorbance of the solution at 405 nm (A405 nm) over time. The threshold of sensitivity for the measurement of turbidity is in the range of 15-20 μM β-AP. […] This assay can be performed using stirring or shaking to accelerate polymerization, thereby increasing the speed of the assay. Moreover the assay can be adapted to a 96-well plate format to screen multiple compounds.
HFIP-solubilized peptide is sonicated in a waterbath sonicator for 5 min at highest setting, then evaporated to dryness under a stream of argon. The peptide film is resuspended in anhydrous dimethylsulfoxide (DMSO) at a concentration of 6.9 mg/ml (25× concentration), sonicated for 5 min as before, then filtered through a 0.2 micron nylon syringe filter (VWR cat. No.28196-050). Test compounds are dissolved in DMSO at a 100× concentration. […] Ten microliters of the mixture is then added to the bottom of a well of a Corning Costar ultra low binding 96-well plate (Coming Costar, Cambridge Mass.; cat. No. 2500). Ninety microliters of water is added to the well, the plate is shaken on a rotary shaken at a constant speed at room temperature for 30 seconds, an additional 100 μl of 2× PTL buffer (20 mM NaH2PO4, 300 mM NaCl, pH 7.4) is added to the well, the plate is reshaken for 30 seconds and a baseline (t=0) turbidity reading is taken by measuring the apparent absorbance at 405 nm using a Bio-Rad Model 450 Microplate Reader. The plate is then returned to the shaker and shaken continuously for 5 hours. Turbidity readings are taken at 15 minute intervals.
β-amyloid aggregation in the absence of any modulators results in enhanced turbidity of the natural β-AP solution (i.e., an increase in the apparent absorbance at 405 nm over time). […]

[1] = Table IV, hydrophobic modifying groups, 5 μM test compound
[2] = Table V, hydroxylated and oxygenated modifying groups, 5 μM test compound
[3] = Table III, modifying groups derived from bile acids, 5 μM test compound
[4] = Table II, second series, different stock of Aβ1-40, 2 μM test compound
[5] = Table II, second series, different stock of Aβ1-40
[6] = Table II, second series, different stock of Aβ1-40, 5 μM test compound
[7] = Table I, 5 μM Aβ1-40, 2 μM test compound, ratio of lag time with compound to lag time of control
[8] = Table I, 5 μM Aβ1-40, 5 μM test compound, ratio of lag time to control

## h-d(AFFLL)-nh2 [PPI-577]
0.5 μM test compound
  ΔLag 0.5 μM: 1.0
  ΔLag 5.0 μM: >7.5
  ΔLag […]: 1.3
Table X, 5 μM test compound
  ΔLag 5 μM: >6

## L-3-Phenyllactyl-d(AFFVL)-nh2 [PPI-608]
Table IX, 5 μM test compound
  ΔLag 5 μM: >6

## h-d(VFF)-oh [PPI-502]
[1]
  ΔLag 5 μM: 1.0

## H-d(A[homoPhe][homoPhe]VL)-nh2 [PPI-571]
Table X, 5 μM test compound
  ΔLag 5 μM: >6

## 4-Hydroxyphenylacetyl-d(FFFVL)-nh2 [PPI-651]
Table IX, 5 μM test compound
  ΔLag 5 μM: 2.1

## (±)-Mandelyl-d(LVFF)-nh2 [PPI-482 (isomer 1)]
[2]
  ΔLag 5 μM: 1.5

## 3,5-Dihydroxy-2-naphthoyl-d(LVFF)-nh2 [PPI-487]
[2]
  ΔLag 5 μM: 2.2

## h-d(AFFFL)-nh2 [PPI-598]
0.5 μM test compound
  ΔLag 0.5 μM: 1.3
  ΔLag 5.0 μM: 6.3
  ΔLag […]: 2.0
Table X, 5 μM test compound
  ΔLag 5 μM: >6

## (±)-Mandelyl-(±)-mandelyl-d(LVFFA)-nh2 [PPI-518]
[2]
  ΔLag 5 μM: 1.5

## h-d(FFFLV)-nh2 [PPI-533]
0.5 μM test compound
  ΔLag 0.5 μM: 1.5
  ΔLag 5.0 μM: >7.5
  ΔLag […]: 3.8
Table X, 5 μM test compound
  ΔLag 5 μM: >6

## 3-(2-Hydroxyphenyl)propionyl-d(AFFVL)-nh2 [PPI-610]
Table IX, 5 μM test compound
  ΔLag 5 μM: 4.5

## D-3-Phenyllactyl-d(AFFVL)-nh2 [PPI-607]
Table IX, 5 μM test compound
  ΔLag 5 μM: 3.1

## 2,4-Dihydroxybenzoyl-d(LVFF)-nh2 [PPI-486]
[2]
  ΔLag 5 μM: 1.2

## 3,5-Dihydroxy-2-naphthoyl-d(LVFFA)-nh2 [PPI-523]
[2]
  ΔLag 5 μM: 3.8
Table VIII, 5 μM test compound
  ΔLag 5 μM: 2.1

## 4-Methylvaleryl-d(LVFFA)-nh2 [PPI-524]
[1]
  ΔLag 5 μM: 1.6

## Glycolyl-d(AFFLL)-nh2 [PPI-592]
Table IX, 5 μM test compound
  ΔLag 5 μM: 1.8

## 3-(4-Hydroxyphenyl)propionyl-d(FFVL)-nh2 [PPI-616]
Table IX, 5 μM test compound
  ΔLag 5 μM: 1.5

## Acetyl-d(VF)-PEA [PPI-495]
[1]
  ΔLag 5 μM: 1.0

## 2-Hydroxyphenylacetyl-d(LVFF)-nh2 [PPI-481]
[2]
  ΔLag 5 μM: 2.0

## 3-Formylbenzoyl-d(LVFFA)-nh2 [PPI-546]
Table IX, 5 μM test compound
  ΔLag 5 μM: 1.9

## CC(C)C[C@@H](N)C(=O)N[C@@H](C(=O)N[C@H](Cc1ccccc1)C(=O)N[C@H](Cc1ccccc1)C(=O)N[C@H](Cc1ccccc1)C(N)=O)C(C)C [PPI-656, H-d(LVFFF)-nh2] (H-[dL][dV][dF][dF][dF]-NH2)
0.5 μM test compound
  ΔLag: 2.3
5 μM test compound
  ΔLag: >2.5

## Cholyl-LVFFA-oh [PPI-424]
[3]
  ΔLag 5 μM: >6.0

## Hydrocinnamoyl-d(FFFVL)-nh2 [PPI-636]
Table IX, 5 μM test compound
  ΔLag 5 μM: 1.7

## CC(C)C[C@@H](NC(=O)[C@H](NC(=O)[C@@H](Cc1ccccc1)NC(=O)[C@@H](Cc1ccccc1)NC(=O)[C@@H](C)NC(=O)c1nccc2ccccc12)C(C)C)C(N)=O [PPI-748, 1-Isoquinolinecarboxyl-d(AFFVL)-nh2] (X5-[dA][dF][dF][dV][dL]-NH2)
5 μM test compound
  ΔLag: <3

## CC(C)C[C@@H](NC(=O)[C@H](NC(=O)[C@@H](Cc1ccccc1)NC(=O)[C@@H](Cc1ccccc1)NC(=O)[C@@H](C)NC(=O)CN)C(C)C)C(N)=O [PPI-734, H-Glycyl-d(AFFVL)-nh2]
5 μM test compound
  ΔLag: >10

## CC(C)C[C@@H](NC(=O)[C@H](NC(=O)[C@@H](Cc1ccccc1)NC(=O)[C@@H](Cc1ccccc1)NC(=O)[C@@H](Cc1cccnc1)NC(=O)c1ccc(O)cc1)C(C)C)C(N)=O [PPI-665, 4-Hydroxybenzoyl-d(Pal-FFVL)-nh2] ({Benzoyl(4-OH)}-[d3Pal][dF][dF][dV][dL]-NH2)
0.5 μM test compound
  ΔLag: 1.5
5 μM test compound
  ΔLag: 2

## 3-(2-Hydroxyphenyl)propionyl-d(FFVL)-nh2 [PPI-615]
Table IX, 5 μM test compound
  ΔLag 5 μM: 2.0

## 3,7-Dihydroxy-2-naphthoyl-d(LVFFA)-nh2 [PPI-548]
Table VIII, 5 μM test compound
  ΔLag 5 μM: 2.5

## Isobutanoyl-d(LVFFA)-nh2 [PPI-526]
[1]
  ΔLag 5 μM: 1.8

## 4-(2-Hydroxyphenyl)propionyl-d(AFFVL)-nh2 [PPI-611]
Table IX, 5 μM test compound
  ΔLag 5 μM: 3.2

## CA-d(LVYFA)-oh [PPI-455]
[4]
  ΔLag 2 μM: 1.8
[5]
  ΔLag 3 μM: 2.0
  ΔLag 4 μM: 2.3
[6]
  ΔLag 5 μM: >2.7

## Chenodeoxycholyl-LVFFA-oh [PPI-521]
[3]
  ΔLag 5 μM: >2.3
Table IX, 5 μM test compound
  ΔLag 5 μM: 3.6

## h-d(AAAAA)-nh2 [PPI-473]
[5]
  ΔLag 3 μM: 1.0
  ΔLag 4 μM: 1.0
[6]
  ΔLag 5 μM: 1.0

## CC(C)C[C@@H](NC(=O)c1ccc(O)cc1)C(=O)N[C@@H](C(=O)N[C@H](Cc1ccc(O)cc1)C(=O)N[C@H](Cc1ccccc1)C(=O)N[C@H](C)C(N)=O)C(C)C [PPI-774, 4-Hydroxybenzoyl-d(LVYFA)-nh2] ({Benzoyl(4-OH)}-[dL][dV][dY][dF][dA]-NH2)
5 μM test compound
  ΔLag: 1

## cholyl-Leu-Val-Phe-Phe-Ala-NH2 [PPI-382]
[7]
  ΔLag 2 μM: >10
[8]
  ΔLag 5 μM: >12

## CC(C)C[C@@H](NC(=O)[C@H](NC(=O)[C@@H](Cc1ccccc1)NC(=O)[C@@H](Cc1ccccc1)NC(=O)[C@@H](C)NC(=O)c1cc2ccccc2cn1)C(C)C)C(N)=O [PPI-749] ({Isoquinolin(3-yl)carbonyl}-[dA][dF][dF][dV][dL]-NH2)
5 μM test compound
  ΔLag: 3

## h-d(FFFFL)-nh2 [PPI-589]
0.5 μM test compound
  ΔLag 0.5 μM: 1.5
  ΔLag 5.0 μM: >7.5
  ΔLag […]: 3.3
Table X, 5 μM test compound
  ΔLag 5 μM: >6

## h-d(AFFVL)-nh2 [PPI-500]
0.5 μM test compound
  ΔLag 0.5 μM: 1.0
  ΔLag 5.0 μM: >6.0
  ΔLag […]: 1.8

## Lithocholyl-LVFFA-oh [PPI-425]
[3]
  ΔLag 5 μM: 1.4

## CA-d(LV(IY)FA)-oh [PPI-462]
[4]
  ΔLag 2 μM: 2.7
[5]
  ΔLag 3 μM: >2.7
  ΔLag 4 μM: >2.7
[6]
  ΔLag 5 μM: >2.7

## CA-d(AFFVL)-cooh [PPI-454]
[7]
  ΔLag 2 μM: 4.0
[8]
  ΔLag 5 μM: >12

## CC(C)C[C@@H](NC(=O)[C@H](NC(=O)[C@@H](Cc1ccccc1)NC(=O)[C@@H](Cc1ccccc1)NC(=O)[C@@H](C)NC(=O)Cc1cccnc1)C(C)C)C(N)=O [PPI-730, 3-Pyridylacetyl-d(AFFVL)-nh2] ({Acetyl(3-pyridyl)}-[dA][dF][dF][dV][dL]-NH2)
5 μM test compound
  ΔLag: 2

## Hyodeoxycholyl-LVFFA-oh [PPI-520]
[3]
  ΔLag 5 μM: >2.3
Table IX, 5 μM test compound
  ΔLag 5 μM: 1.5

## 4-Hydroxybenzoyl-d(LFFFL)-nh2 [PPI-643]
Table IX, 5 μM test compound
  ΔLag 5 μM: 2.2

## CC(C)C[C@@H](NC(=O)[C@H](NC(=O)[C@@H](Cc1ccccc1)NC(=O)[C@@H](Cc1ccccc1)NC(=O)CN)C(C)C)C(N)=O [PPI-733, H-Glycyl-d(FFVL)-nh2] (H-G[dF][dF][dV][dL]-NH2)
5 μM test compound
  ΔLag: 0

## h-d(LVFF)-nh2 [PPI-471]
[4]
  ΔLag 2 μM: 2.6
[5]
  ΔLag 3 μM: 2.6
  ΔLag 4 μM: 2.6
[6]
  ΔLag 5 μM: 2.4

## Glycolyl-d(FFFVL)-nh2 [PPI-596]
Table IX, 5 μM test compound
  ΔLag 5 μM: 3.6
[2]
  ΔLag 5 μM: 3.6

## H-d(LFFFL)-nh2 [PPI-638]
Table X, 5 μM test compound
  ΔLag 5 μM: >6

## CA-d(LVF(IY)A)-oh [PPI-463]
[4]
  ΔLag 2 μM: >2.7
[5]
  ΔLag 3 μM: >2.7
  ΔLag 4 μM: >2.7
[6]
  ΔLag 5 μM: >2.7

## 4-Hydroxycinnamoyl-d(AFFVL)-nh2 [PPI-587]
Table IX, 5 μM test compound
  ΔLag 5 μM: 3.7

## CC(C)C[C@@H](NC(=O)[C@H](NC(=O)[C@@H](Cc1ccccc1)NC(=O)[C@@H](Cc1ccccc1)NC(=O)[C@@H](C)NC(=O)c1ccnc2ccccc12)C(C)C)C(N)=O [PPI-746, 4-Quinolinecarboxyl-d(AFFVL)-nh2] (Quinoline4carbonyl-[dA][dF][dF][dV][dL]-NH2)
5 μM test compound
  ΔLag: 2

## (±)-Mandelyl-d(AFFVL)-nh2 [PPI-584]
Table IX, 5 μM test compound
  ΔLag 5 μM: 4.8

## 4-Hydroxyphenylacetyl-d(LVFFA)-nh2 [PPI-559]
Table VIII, 5 μM test compound
  ΔLag 5 μM: 3.5
